# Reference: ChEMBL document CHEMBL1201862, “PubChem BioAssay data set” (2004)
#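 Exposure lasted 48 hours, with cells grown in 96-well plates and compounds tested at five concentrations. GI50 is the concentration that inhibits growth by half.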 The source made the active and inactive calls. No stated cut-off is given here; in the data, active = GI50 up to about 1.1 µM and inactive = higher.
# How the values were obtained:
# Test in all cases: inhibition of tumour cell growth, NCI panel, 48 h
# [1] = system: OVCAR-4
# [2] = system: SK-MEL-2
# [3] = system: M14
# [4] = system: M19-MEL
# [5] = system: NCI-H522
# [6] = system: SF-295
# [7] = system: HOP-92
# [8] = system: KM12
# [9] = system: DLD-1
# [10] = system: IGROV-1
# [11] = system: DMS-114
# [12] = system: SK-MEL-5
# [13] = system: SW-620
# [14] = system: SNB-19
# [15] = system: OVCAR-3
# [16] = system: A549
# [17] = system: HL-60
# [18] = system: A498
# [19] = system: TK-10
# [20] = system: NCI-H460
# [21] = system: U-251
# [22] = system: Malme-3M
# [23] = system: UACC-257
# [24] = system: NCI-H23
# [25] = system: HT-29
# [26] = system: EKVX
# [27] = system: SF-539
# [28] = system: HOP-62
# [29] = system: OVCAR-5
# [30] = system: RXF 631
# [31] = system: RXF 393
# [32] = system: SK-OV-3
# [33] = system: RPMI-8226
# [34] = system: SNB-75
# [35] = system: DMS-273
# [36] = system: HCT-116
# [37] = system: SN12C
# [38] = system: 786-0
# [39] = system: CAKI-1
# [40] = system: SNB-78
# [41] = system: CCRF-CEM
# [42] = system: K562
# [43] = system: UO-31
# [44] = system: ACHN
# [45] = system: COLO 205
# [46] = system: LXFL 529
# [47] = system: OVCAR-8
# [48] = system: KM-20L2
# [49] = system: NCI-H226
# [50] = system: MOLT-4
# [51] = system: SK-MEL-28
# [52] = system: XF498
# [53] = system: UACC-62
# [54] = system: HCC 2998
# [55] = system: HCT-15
# [56] = system: MDA-MB-231
# [57] = system: NCI/ADR-RES
# [58] = system: DU-145
# [59] = system: BT-549
# [60] = system: PC-3
# [61] = system: Hs-578T
# [62] = system: MCF7
# [63] = system: T47D
# [64] = system: LOX IMVI
# [65] = system: SF-268
# [66] = system: SR
# [67] = system: HOP-18
# [68] = system: MDA-MB-435
# [69] = system: MDA-N
smiles,measurement,setting,value
CC1=C(C(=O)NCc2ccccc2)C(c2ccc(N(C)C)cc2)C(C(=O)NCc2ccccc2)=C(C)N1,GI50,[1],> 100 µM (inactive)
same,GI50,[2],> 100 µM (inactive)
same,GI50,[3],> 100 µM (inactive)
same,GI50,[4],> 100 µM (inactive)
same,GI50,[5],77.8 µM (inactive)
same,GI50,[6],> 100 µM (inactive)
same,GI50,[7],> 100 µM (inactive)
same,GI50,[8],> 100 µM (inactive)
same,GI50,[9],> 100 µM (inactive)
same,GI50,[10],> 100 µM (inactive)
same,GI50,[11],> 100 µM (inactive)
same,GI50,[12],> 100 µM (inactive)
same,GI50,[13],> 100 µM (inactive)
same,GI50,[14],> 100 µM (inactive)
same,GI50,[15],> 100 µM (inactive)
same,GI50,[16],> 100 µM (inactive)
same,GI50,[17],> 100 µM (inactive)
same,GI50,[18],> 100 µM (inactive)
same,GI50,[19],> 100 µM (inactive)
same,GI50,[20],> 100 µM (inactive)
same,GI50,[21],> 100 µM (inactive)
same,GI50,[22],> 100 µM (inactive)
same,GI50,[23],> 100 µM (inactive)
same,GI50,[24],> 100 µM (inactive)
same,GI50,[25],> 100 µM (inactive)
same,GI50,[26],> 100 µM (inactive)
same,GI50,[27],> 100 µM (inactive)
same,GI50,[28],> 100 µM (inactive)
same,GI50,[29],> 100 µM (inactive)
same,GI50,[30],> 100 µM (inactive)
same,GI50,[31],11.7 µM (inactive)
same,GI50,[32],> 100 µM (inactive)
same,GI50,[33],> 100 µM (inactive)
same,GI50,[34],29.3 µM (inactive)
same,GI50,[35],> 100 µM (inactive)
same,GI50,[36],> 100 µM (inactive)
same,GI50,[37],> 100 µM (inactive)
same,GI50,[38],> 100 µM (inactive)
same,GI50,[39],> 100 µM (inactive)
same,GI50,[40],> 100 µM (inactive)
same,GI50,[41],> 100 µM (inactive)
same,GI50,[42],> 100 µM (inactive)
same,GI50,[43],> 100 µM (inactive)
same,GI50,[44],> 100 µM (inactive)
same,GI50,[45],> 100 µM (inactive)
same,GI50,[46],> 100 µM (inactive)
same,GI50,[47],> 100 µM (inactive)
same,GI50,[48],> 100 µM (inactive)
same,GI50,[49],> 100 µM (inactive)
same,GI50,[50],> 100 µM (inactive)
same,GI50,[51],> 100 µM (inactive)
same,GI50,[52],> 100 µM (inactive)
same,GI50,[53],> 100 µM (inactive)
same,GI50,[54],> 100 µM (inactive)
Nc1ccc(-c2nc3ccccc3s2)cc1,GI50,[1],14.8 µM (inactive)
same,GI50,[2],25.3 µM (inactive)
same,GI50,[3],18.6 µM (inactive)
same,GI50,[4],30.8 µM (inactive)
same,GI50,[5],20.6 µM (inactive)
same,GI50,[6],29.9 µM (inactive)
same,GI50,[7],11.4 µM (inactive)
same,GI50,[55],19.5 µM
same,GI50,[8],21.4 µM (inactive)
same,GI50,[56],17.9 µM (inactive)
same,GI50,[57],22.6 µM (inactive)
same,GI50,[58],16.4 µM (inactive)
same,GI50,[59],14.9 µM (inactive)
same,GI50,[9],26.4 µM (inactive)
same,GI50,[10],18.5 µM (inactive)
same,GI50,[11],17.7 µM (inactive)
same,GI50,[12],21.6 µM (inactive)
same,GI50,[13],20 µM (inactive)
same,GI50,[60],14.9 µM (inactive)
same,GI50,[14],28.1 µM (inactive)
same,GI50,[15],13.3 µM (inactive)
same,GI50,[16],23 µM (inactive)
same,GI50,[17],24.9 µM (inactive)
same,GI50,[61],36.1 µM (inactive)
same,GI50,[62],19.1 µM (inactive)
same,GI50,[18],29.7 µM (inactive)
same,GI50,[63],20.7 µM (inactive)
same,GI50,[19],24.5 µM (inactive)
same,GI50,[20],20.8 µM (inactive)
same,GI50,[21],17.4 µM (inactive)
same,GI50,[64],16.8 µM (inactive)
same,GI50,[22],17.6 µM (inactive)
same,GI50,[23],22 µM (inactive)
same,GI50,[24],18.8 µM (inactive)
same,GI50,[65],10.3 µM (inactive)
same,GI50,[25],19.4 µM (inactive)
same,GI50,[26],33.2 µM (inactive)
same,GI50,[27],23 µM (inactive)
same,GI50,[28],36.9 µM (inactive)
same,GI50,[29],18.7 µM (inactive)
same,GI50,[30],19.7 µM (inactive)
same,GI50,[31],17.8 µM (inactive)
same,GI50,[32],45.5 µM (inactive)
same,GI50,[33],28.6 µM (inactive)
same,GI50,[34],23.8 µM (inactive)
same,GI50,[66],18.4 µM (inactive)
same,GI50,[36],18 µM (inactive)
same,GI50,[37],19.1 µM (inactive)
same,GI50,[38],16.2 µM (inactive)
same,GI50,[39],24.2 µM (inactive)
same,GI50,[40],21.6 µM (inactive)
same,GI50,[41],14.6 µM (inactive)
same,GI50,[42],21.9 µM (inactive)
same,GI50,[67],86.9 µM (inactive)
same,GI50,[43],12.6 µM (inactive)
same,GI50,[44],15.7 µM (inactive)
same,GI50,[45],23.8 µM (inactive)
same,GI50,[46],17.5 µM (inactive)
same,GI50,[47],12.8 µM (inactive)
same,GI50,[48],37.8 µM (inactive)
same,GI50,[49],25.3 µM (inactive)
same,GI50,[50],23.1 µM (inactive)
same,GI50,[51],17.1 µM (inactive)
same,GI50,[68],17.9 µM (inactive)
same,GI50,[53],18.4 µM (inactive)
same,GI50,[54],59.7 µM (inactive)
same,GI50,[69],19.5 µM (inactive)
